Where a chain is given by its changes, count along the chain named.
Legend:
T349M-mutant Menin = target: T1, T349M-mutant Menin (Homo sapiens, UniProt O00255, T344M); assay: competitive MLL1 fluorescence polarization (FP) binding assay, displacement of MLL1 peptide
T1 construct: made in house; host or cells: E. coli BL21-DE3 Rosetta
T1 sequence (O00255 1-615 isoform O00255-1 T349M): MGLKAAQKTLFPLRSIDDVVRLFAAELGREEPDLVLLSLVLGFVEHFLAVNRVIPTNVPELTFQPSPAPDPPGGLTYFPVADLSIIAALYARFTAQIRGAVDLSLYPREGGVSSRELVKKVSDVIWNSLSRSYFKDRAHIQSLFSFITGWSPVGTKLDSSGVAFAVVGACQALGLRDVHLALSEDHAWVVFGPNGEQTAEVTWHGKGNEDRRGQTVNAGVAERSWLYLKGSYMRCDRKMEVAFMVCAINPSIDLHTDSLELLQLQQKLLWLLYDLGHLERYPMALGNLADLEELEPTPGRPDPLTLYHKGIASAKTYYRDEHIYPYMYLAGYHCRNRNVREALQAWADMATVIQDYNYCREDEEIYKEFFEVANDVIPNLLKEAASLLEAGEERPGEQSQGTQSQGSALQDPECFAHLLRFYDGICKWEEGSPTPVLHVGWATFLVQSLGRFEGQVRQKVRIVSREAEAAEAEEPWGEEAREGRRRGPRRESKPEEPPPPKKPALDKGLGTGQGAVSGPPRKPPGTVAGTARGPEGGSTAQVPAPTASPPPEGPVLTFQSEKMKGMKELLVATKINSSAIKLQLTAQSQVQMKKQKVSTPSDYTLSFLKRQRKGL
Experimental: (§1) The following peptides were synthesized by GenScript: N-terminal FITC-conjugated MLL14-43(C-A) peptide probe ([…]) with a C-A modification that improves binding to Menin^19, MLL14-43(C-A) ([…]) and MLL14-43(WT) ([…]). N-terminally FITC-labelled and unmodified MLL2 peptides (MLL2(15-48) […]) were synthesized at Genscript. To derive the FITC-MLL14-43(C-A) peptide Kd. FITC-conjugated MLL14-43(C-A) peptide probe at final concentration of 1 nM was mixed with increasing concentration of purified StrepII-Avi-TEV-Menin (5 μM final top concentration, 2-fold, 23-point dilution and a buffer control) in an assay buffer (50 mM Tris pH 7.5, 200 mM NaCl, 0.1% Pluronic F-68 solution (Sigma)) in 384-well microplates at 15 μL assay volume (Corning, 4514) and incubated for 30 min at room temperature (RT). For all assays change in fluorescence polarization was monitored using a PHERAstar FS microplate reader (BMG Labtech). The FITC-conjugated MLL14-43(C-A) peptide Kd was obtained from a fit in GraphPad Prism 9 using one site total model and averaged from three independent runs with three replicates (n=3, FIG. 8). In competitive titration experiments Menin proteins (1 nM WT, 1 nM M327I or 3 nM for T349M) and 1 nM FITC-conjugated MLL14-43(C-A) peptide probe were incubated in an assay buffer for 30 min. SNDX-5613 was then dispensed to 384-well microplate (Corning, 4514) containing 15 μL of the assay mix using D300e Digital Dispenser (HP) and normalized to 1% DMSO followed by 90 min incubation. The fluorescence polarization was monitored by PHERAstar FS microplate reader (BMG Labtech). The MLL14-43(WT) and MLL14-43(C-A) peptide titrations were performed by addition of 7.5 μL of 2-fold 23-point serial dilution into 7.5 μL of assay mix with the final concentrations of 1 nM FITC-conjugated MLL4-43 peptide probe, 1 nM WT Menin or 1 nM Menin M327I or 3 nM Menin T349M in assay buffer. The fluorescence polarization was monitored by PHERAstar FS microplate reader (BMG Labtech). For analysis of the competitive titration experiments the last 10 cycles of the data were averaged to obtain technical replicates. Data from three independent replicates (n=3) was plotted and IC50 values estimated using variable slope equation in GraphPad Prism 9. The calculation of Ki values was performed using Ki calculator available at websites.umich.edu/˜shaomengwanglab/software/calc_ki/index.html^23.

M327I-mutant Menin = target: T2, M327I-mutant Menin (Homo sapiens, UniProt O00255, M322I); assay: as above
T2 construct: made in house; host or cells: E. coli BL21-DE3 Rosetta
T2 sequence (O00255 1-615 isoform O00255-1 M327I): T1 sequence (O00255 1-615 isoform O00255-1 T349M) with M327I, M349T
Experimental: as §1

Structure (SMILES) | increase of IC50-value for MLL-displacement compared to WT Menin (T349M-mutant Menin; T349M mutant vs WT Menin) [fold] | increase of IC50-value for MLL-displacement compared to WT Menin (M327I-mutant Menin; M327I mutant vs WT Menin) [fold] | reduction in affinity, fluorescence polarization (M327I-mutant Menin; MEN1-M327I compared to MEN1-WT) | effect of T349M on binding in the fluorescence polarization assay (T349M-mutant Menin; T349M mutant Menin) | effect of M327I on binding (M327I-mutant Menin; M327I mutant Menin)
CCN(C(=O)c1cc(F)ccc1Oc1cncnc1N1CC2(CCN(C[C@H]3CC[C@H](NS(=O)(=O)CC)CC3)CC2)C1)C(C)C [SNDX-5613, revumenib] | 111 | 51 | over 50 fold |  | 
CNc1nc(NC2CCN(Cc3ccc4c(cc(C#N)n4CC45CC(NC=O)(C4)C5)c3C)CC2)c2cc(CC(F)(F)F)sc2n1 [MI-3454] |  |  |  | less affected | severely affected

From patent publication US20260185163A1, “MEN1 MUTATIONS AND USES THEREOF” (DANA-FARBER CANCER INSTITUTE, INC., priority 2022, published 2026)
